From patent US9370189B2, “Controlling Pseudomonas aeruginosa persister cells with GM-CSF” (priority 2012, dated 2016)

Tested on: P. aeruginosa PDO300
Test: Effect of GM-CSF on planktonic PDO300 cells (total viable cells and persisters) at exponential phase, alone and with antibiotic
Assay type: cell-based, Pseudomonas aeruginosa
Settings: for % change in avg. CFU/mL by GM-CSF (compared to GM-CSF free control) With 50 μg/mL Cip / % change in avg. CFU/mL by GM-CSF (compared to GM-CSF free control) With 50 μg/mL Tet / % change in avg. CFU/mL by GM-CSF (compared to GM-CSF free control) With 50 μg/mL Tob / % change in avg. CFU/mL by GM-CSF (compared to GM-CSF free control) With 200 μg/mL Gen: PDO300 exponential phase, 0.17 pM GM-CSF; for % change in avg. CFU/ml after adding factor + CIP / % change in avg. CFU/ml after adding factor + TET / % change in avg. CFU/ml after adding factor + TOB / % change in avg. CFU/ml after adding factor + GEN / average CFU/ml of persisters reduced by / average CFU/ml of total viable cells reduced by: planktonic PDO300; for % change in avg. CFU/ml after adding factor + CIP: 2.43 pg/mL GM-CSF with 50 μg/mL ciprofloxacin; for % change in avg. CFU/ml after adding factor + TET: 2.43 pg/mL GM-CSF with 50 μg/mL tetracycline; for % change in avg. CFU/ml after adding factor + TOB: 2.43 pg/mL GM-CSF with 50 μg/mL tobramycin; for % change in avg. CFU/ml after adding factor + GEN: 2.43 pg/mL GM-CSF with 200 μg/ml gentamicin; for average CFU/ml of persisters reduced by / average CFU/ml of total viable cells reduced by: reduction
Protocol: This Example describes the treatment of planktonic P. aeruginosa PAO1, PDO300 and Escherichia coli K12, with GM-CSF introduced directly or together with an antibiotic to test the synergy. All experiments were conducted with cells harvested from exponential phase subcultures with an optical density at 600 nm (OD600) of 0.3 to 0.4.
In brief, after preparing an overnight culture of the tested strain in 25 ml LB medium, a subculture was prepared with an OD600 of 0.01 in 50 mL LB medium. The subculture was incubated at 37° C. with shaking at 200 rpm for 3-4 h, till an OD600 of 0.3 to 0.4 was reached. The exponential phase subculture was then divided equally into two centrifuge tubes, each containing 25 mL of the subculture. The subcultures were washed twice with 0.85% NaCl buffer by vortexing and then centrifuging at 4° C., 8000 rpm for 10 min each time. The washed subcultures/cells were resuspended in 25 mL 0.85% NaCl buffer and vortexed gently for 1 min. One of the tubes of subculture was selected for isolation of persisters by adding 200 μg/mL ciprofloxacin (for PAO1 and PDO300 strains) or 100 μg/mL ampicillin (for E. coli K12 strain). After adding the antibiotic for persister isolation, the subculture was incubated at 37° C., shaking at 200 rpm for 3.5 h.
To test the effects of GM-CSF on viability of persisters, the second tube was used to quantify the total number of viable cells and 1 mL of the washed persister cells was divided into 6 microcentrifuge tubes; 3 were control and the other 3 were GM-CSF treatment samples. In the treatment samples, GM-CSF was added to a concentration of 2.43 pg/mL (or 0.17 pM), the same as found in healthy human bodies. The control samples were supplemented with the same concentration of PBS and BSA as present in 2.43 pg/mL (or 0.17 pM) GM-CSF samples.
After incubating at 37° C. for 1 h with shaking at 200 rpm, the samples were plated on LB agar plates (15 g/L bacto agar) using drop plate method. The agar plates were then incubated for 24 h at 37° C. to count the total number of persister cells and understand the effect of 0.17 pM GM-CSF on the viability of persister cells.
To test the synergy with antibiotics, the above samples were then incubated at 37° C. for 3.5 h with shaking at 200 rpm after adding the selected antibiotic. After 3.5 h, the CFU of samples was quantified in the same way to understand if there is any synergy between GM-CSF and antibiotic. Similar treatments were performed on the total population in exponential phase as well. Apart from exponential phase, the synergistic effects of GM-CSF with antibiotics on total viable cells and persisters were also evaluated at stationary phase but PBS buffer (pH=7.4) was used in the experiments instead of 0.85% NaCl solution. Moreover, the 1 h and 3.5 h treatments were performed as co-treatments.

[1] = 2.43 pg/ml GM-CSF in the presence of 50 μg/mL ciprofloxacin
[2] = 2.43 pg/ml GM-CSF in the presence of 50 μg/mL tetracycline
[3] = 2.43 pg/ml GM-CSF in the presence of 50 μg/mL tobramycin
[4] = 2.43 pg/ml GM-CSF in the presence of 200 μg/mL gentamicin

“GM-CSF: granulocyte macrophage-colony stimulating factor, a cytokine secreted by macrophages; recombinant human GM-CSF (R&D systems) in binding tests” was tested, and the “% change in avg. CFU/mL by GM-CSF (compared to GM-CSF free control) With 50 μg/mL Cip” value (persisters) was −22.2%, the “% change in avg. CFU/mL by GM-CSF (compared to GM-CSF free control) With 50 μg/mL Tet” value (persisters) was −46.2% and the “% change in avg. CFU/mL by GM-CSF (compared to GM-CSF free control) With 50 μg/mL Tob” value (persisters) was −80.0%. For the same substance, the “% change in avg. CFU/mL by GM-CSF (compared to GM-CSF free control) With 200 μg/mL Gen” value (persisters) was −50.0%, the “% change in avg. CFU/ml after adding factor + CIP” value (persisters) was −27.78% and the “% change in avg. CFU/ml after adding factor + TET” value (persisters) was −32.69%. The “% change in avg. CFU/ml after adding factor + TOB” value (persisters) was −75.86%, the “% change in avg. CFU/ml after adding factor + GEN” value (persisters) was −50.94% and the “average CFU/ml of persisters reduced by” value [1] was 27.78%. For the same substance, the “average CFU/ml of total viable cells reduced by” value [1] was 25.00%, the “average CFU/ml of persisters reduced by” value [2] was 32.69% and the “average CFU/ml of total viable cells reduced by” value [2] was 12.50%. The “average CFU/ml of persisters reduced by” value [3] was 75.86%, the “average CFU/ml of total viable cells reduced by” value [3] was 8.33% and the “average CFU/ml of persisters reduced by” value [4] was 50.94%. For the same substance, the “average CFU/ml of total viable cells reduced by” value [4] was 20.00%, the “% change in avg. CFU/mL by GM-CSF (compared to GM-CSF free control) With 50 μg/mL Cip” value (total viable cells) was −25.0% and the “% change in avg. CFU/mL by GM-CSF (compared to GM-CSF free control) With 50 μg/mL Tet” value (total viable cells) was −12.5%. The “% change in avg. CFU/mL by GM-CSF (compared to GM-CSF free control) With 50 μg/mL Tob” value (total viable cells) was −8.3%, the “% change in avg. CFU/mL by GM-CSF (compared to GM-CSF free control) With 200 μg/mL Gen” value (total viable cells) was −20.0% and the “% change in avg. CFU/ml after adding factor + CIP” value (total viable cells) was −25.00%. For the same substance, the “% change in avg. CFU/ml after adding factor + TET” value (total viable cells) was −12.50%, the “% change in avg. CFU/ml after adding factor + TOB” value (total viable cells) was −8.33% and the “% change in avg. CFU/ml after adding factor + GEN” value (total viable cells) was −20.00%.
